Experimental findings from ChEMBL document CHEMBL4342427, “A new chemotype with promise against Trypanosoma cruzi” (Bioorg Med Chem Lett, 2020) are described below.

Values after ≈ are worked out from the molar mass of the structure shown. Active and inactive are the calls of the source. The rule behind the calls is not given here. Bounds are passed on as bounds.

The subject of series [1] is Trypanosoma cruzi. Put plainly: Antitrypanosomal activity against Trypanosoma cruzi Tulahuen C4 trypomastigotes infected in rat L6 cells measured after 96 hrs by inverted microscopy analysis. As to conditions: Tulahuen C4, L6, 96 h. It counts as functional, organism-based.
Series [2] addresses T1, Sterol 14-alpha demethylase (Trypanosoma cruzi (strain CL Brener), UniProt Q7Z1V1). Put plainly: (§1) Binding affinity to full length Trypanosoma cruzi Tulahuen C4 C-terminal His-tagged CYP51 expressed in Escherichia coli HMS174 (DE3) assessed as induction of shift in Soret band by spectrophotometry.
The test system of series [3] is Trypanosoma brucei rhodesiense. Put plainly: Antiprotozoal activity against Trypanosoma brucei rhodesiense STIB900 […] assessed as growth inhibition after 72 hrs by Alamar Blue dye-based fluorometric analysis. It counts as functional, organism-based. As to conditions: STIB900, 72 h. Background: Resazurin is reduced to fluorescent resorufin, in cell work by metabolically active cells.

In a further series the test system is U2OS. Put plainly: Cytotoxicity against human U2OS cells assessed as cell growth inhibition. It counts as cell-based.
Series [4] in a line: Kinetic solubility in phosphate buffer at pH 6.5 by nephelometry. As to conditions: read-out: Kinetic_solubility.
The next series deals with HEK-293T. Put plainly: Cytotoxicity against human HEK293T cells assessed as cell growth inhibition. It counts as cell-based.
Series [5] in a line: Cytotoxicity against human HC04 cells assessed as cell growth inhibition. It counts as cell-based.
In another series the test system is HFF. Put plainly: Cytotoxicity against human HFF cells assessed as cell growth inhibition. It counts as cell-based.
Another series concerns Leishmania donovani. Put plainly: Antileishmanial activity against Leishmania donovani MHOM/ET/67/L82 amastigotes assessed as growth inhibition after 72 hrs by plate reader based Alamar blue assay. As to conditions: MHOM/ET/67/L82, 72 h. It counts as functional, organism-based.
Series [6] is described as follows: Intrinsic clearance in mouse liver microsomes assessed per mg protein measured up to 60 mins in presence of NADPH. It counts as ADME, Microsome. As to conditions: 1 h. For orientation: Liver microsomes are vesicles of endoplasmic reticulum, rich in cytochrome P450 enzymes.
The test system of the next series is Plasmodium falciparum. Put plainly: Antiprotozoal activity against Plasmodium falciparum NF54 assessed as reduction in [3H]hypoxanthine incorporation preincubated for 48 hrs followed by [3H]hypoxanthine addition and measured after 24 hrs by liquid scintillation counting method. It counts as functional, organism-based.
Series [7] in a line: n-octanol/aqueous buffer distribution coefficient, log D of compound at pH 7.4 by HPLC analysis. It counts as physicochemical.
Series [8] concerns the target T1, Sterol 14-alpha demethylase. Put plainly: Inhibition of Trypanosoma cruzi Tulahuen C4 CYP51 expressed in Escherichia coli HMS174 using [3H]-sterol as substrate in presence of NADPH by reversed phase HPLC analysis.
A short description of series [9]: Protein binding in human plasma by HPLC analysis. It counts as ADME, cell-free.
In the next series the test system is Toxoplasma gondii. Put plainly: Antiparasitic activity against Toxoplasma gondii RH transfected with fluorescent transgene dTom. It counts as functional, organism-based.
The nature of series [10]: Intrinsic clearance in human liver microsomes assessed per mg protein measured up to 60 mins in presence of NADPH. It counts as ADME, Microsome. As to conditions: for microsomal CLint: liver microsomes.
The test system of series [11] is Trypanosoma cruzi. Put plainly: Antitrypanosomal activity against Trypanosoma cruzi Tulahuen 20A trypomastigote expressing GFP infected in BALB/c mouse cardiomyocytes assessed as reduction in parasitemia measured after 72 hrs by fluorescence assay. It counts as functional, organism-based.
Series [12] is described as follows: Ratio of IC50 for antiprotozoal activity against Trypanosoma brucei rhodesiense STIB900 […] assessed as growth inhibition after 72 hrs by Alamar Blue dye-based fluorometric analysis to IC50 for antitrypanosomal activity against Trypanosoma cruzi Tulahuen C4 trypomastigotes infected in rat L6 cells measured after 96 hrs by inverted microscopy analysis. It counts as functional.

Series [13] in a line: Kinetic solubility in 0.01M HCl at pH 2 by nephelometry. As to conditions: read-out: Kinetic_solubility.
A short description of series [14]: Ratio of IC50 for antiprotozoal activity against Plasmodium falciparum NF54 assessed as reduction in [3H]hypoxanthine incorporation preincubated for 48 hrs followed by [3H]hypoxanthine addition and measured after 24 hrs by liquid scintillation counting method to IC50 for antitrypanosomal activity against Trypanosoma cruzi Tulahuen C4 trypomastigotes infected in rat L6 cells measured after 96 hrs …. It counts as functional.

For series [15], the target named is Sterol 14-alpha demethylase (Trypanosoma cruzi (strain CL Brener)) (UniProt Q7Z1V1). The description is as §1.
Sterol 14-alpha demethylase (Trypanosoma cruzi (strain CL Brener)), sequence (Q7Z1V1 whole entry, looked up): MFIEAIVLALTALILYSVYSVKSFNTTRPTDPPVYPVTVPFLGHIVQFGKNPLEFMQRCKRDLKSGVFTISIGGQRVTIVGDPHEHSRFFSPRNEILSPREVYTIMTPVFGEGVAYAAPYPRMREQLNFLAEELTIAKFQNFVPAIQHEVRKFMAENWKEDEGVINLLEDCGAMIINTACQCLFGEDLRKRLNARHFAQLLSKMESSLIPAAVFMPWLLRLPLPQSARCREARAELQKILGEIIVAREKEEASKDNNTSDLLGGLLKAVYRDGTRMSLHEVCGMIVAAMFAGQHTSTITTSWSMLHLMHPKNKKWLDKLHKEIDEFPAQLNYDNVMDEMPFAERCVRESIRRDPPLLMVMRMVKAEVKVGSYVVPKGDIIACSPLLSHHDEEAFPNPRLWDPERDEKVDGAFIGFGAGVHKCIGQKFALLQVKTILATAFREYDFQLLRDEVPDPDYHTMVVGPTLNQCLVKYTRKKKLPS

T1 sequence (Q7Z1V1 whole entry): as the sequence (Q7Z1V1 whole entry, looked up) above

As usually defined, the IC50 is the concentration that inhibits the measured activity by half. In the series with Trypanosoma cruzi [1], `Cc1ccc(NC(=O)c2ccc(CNS(=O)(=O)c3ccc(N4CCN(C)CC4)cc3)cc2)cn1` returned a half-inhibitory concentration (IC50) of 88 µM.

As for `O=C(Nc1cccnc1)c1ccc(CNS(=O)(=O)c2ccc(N3CCNCC3)cc2)cc1`, the 50% inhibitory concentration (IC50) in the series on Trypanosoma cruzi [1] is 69 µM.

Regarding `C[C@@H]1CN(c2ccc(S(=O)(=O)NCc3ccc(C(=O)Nc4cccnc4)cc3)cc2)C[C@H](C)N1`, the IC50 in the series with Trypanosoma cruzi [1] was 130 µM.

In general, Kd refers to a measure of binding affinity in units of concentration. One may read the logD as lipophilicity at a set pH, counting ionised and neutral species. Lower therefore signals lower lipophilicity. As a reminder, the microsomal CLint is the capacity of the preparation to metabolise the compound, expressed as a volume cleared per time. Regarding `CN1CCN(c2ccc(S(=O)(=O)NCc3ccc(C(=O)Nc4cccnc4)cc3)cc2)CC1`, in [2], the Kd was 1.32 µM. Besides, the IC50 in series [3] was 32 µM; with U2OS, 0.15 µM; in the series with HEK-293T, 0.36 µM; in series [5], above 50 µM; with HFF it was above 50 µM; in the series on Leishmania donovani, above 200 µM. The 50% inhibitory concentration (IC50) in the series on Plasmodium falciparum was 10 µM; in the series on Trypanosoma cruzi [1] it was 0.007 µM; in [8], 49 µM; in the series with Toxoplasma gondii, above 100 µM. For the same compound, in series [4], the solubility kinetic was 0.025 to 0.05 mg/mL (≈ 53.7 to 107 µM). For the same compound, the CLint in [6] came out at 112 µL/min/mg. Moreover, the logD in [7] is 2.8. The same compound registered a PPB in series [9] of 85.2%. Further, in series [10], the intrinsic metabolic clearance (microsomal CLint) turned out to be 45 µL/min/mg.

In the series on Trypanosoma cruzi [1], `CN1CCN(c2ccc(S(=O)(=O)NCc3ccc(C(=O)Nc4cncnc4)cc3)cc2)CC1` displayed a half-maximal inhibitory concentration (IC50) of 96 µM.

With `CC[C@@H]([C@H](C)O)n1ncn(-c2ccc(N3CCN(c4ccc(OC[C@@H]5CO[C@@](Cn6cncn6)(c6ccc(F)cc6F)C5)cc4)CC3)cc2)c1=O` [POSACONAZOLE], in the series with Trypanosoma cruzi [11], the IC50 stood at 0.005 µM.

In the series with Trypanosoma cruzi [1], `O=C(Nc1cccnc1)c1ccc(CNS(=O)(=O)c2ccc(N3CCCCC3)cc2)cc1` gave an IC50 of 110 µM.

Regarding `O=C(Nc1cccnc1)c1ccc(CNS(=O)(=O)c2ccc(N3CCOCC3)cc2)cc1`, the IC50 in series [3] is 25 µM; in the series on U2OS, 0.16 µM; in the series with HEK-293T, 0.95 µM; in [5] it was above 50 µM; in the series with HFF it was 2 µM; with Leishmania donovani it was 180 µM. Moreover, the 50% inhibitory concentration (IC50) in the series on Plasmodium falciparum was 21 µM; in the series on Trypanosoma cruzi [1], 2.1 µM; in the series with Toxoplasma gondii, above 100 µM. For the same compound, the solubility kinetic in [4] is 0.0125 to 0.025 mg/mL (≈ 27.6 to 55.2 µM); in [13] it was 0.05 to 0.1 mg/mL (≈ 110 to 221 µM). In addition, the “Ratio IC50” value in series [12] and in [14] was 10 throughout. Also, in series [6], the CLint turned out to be 200 µL/min/mg. Further, the logD in series [7] is 2.6. The compound also displayed a PPB in [9] of 76.2%. Moreover, in series [10], the intrinsic metabolic clearance (microsomal CLint) was 69 µL/min/mg.

As for `CCOC(=O)N1CCN(c2ccc(S(=O)(=O)NCc3ccc(C(=O)Nc4cccnc4)cc3)cc2)CC1`, the half-maximal inhibitory concentration (IC50) in the series on Trypanosoma cruzi [1] came to 46 µM.

Turning to `CN1CCN(c2ccc(C(=O)NCc3ccc(C(=O)Nc4cccnc4)cc3)cc2)CC1`, the concentration for half-maximal inhibition (IC50) with Trypanosoma cruzi [1] worked out at 120 µM.

Compound `O=C(Nc1cccnc1)c1ccc(CNS(=O)(=O)c2ccc(N3CCC(O)CC3)cc2)cc1` came in with a concentration for half-maximal inhibition (IC50) with Trypanosoma cruzi [1] of 120 µM.

In the series with Trypanosoma cruzi [1], `CN1CCN(c2ccc(S(=O)(=O)NC[C@H]3CC[C@H](C(=O)Nc4cccnc4)CC3)cc2)CC1` had an IC50 of 120 µM.

Consider `CN1CCN(c2ccc(S(=O)(=O)NCc3ccc(-c4nc(-c5cccnc5)no4)cc3)cc2)CC1`, for which the 50% inhibitory concentration (IC50) in [3] is 3.4 µM; in the series on U2OS, 28 µM; with HEK-293T it was 42 µM; in series [5] it was above 50 µM; in the series with HFF, above 50 µM; in the series on Leishmania donovani, 49 µM. Also, the values for the IC50 in the series on Plasmodium falciparum, in the series with Trypanosoma cruzi [1] and in the series with Toxoplasma gondii were 5.8 µM, 1.2 µM and 21 µM, respectively. Besides, the solubility kinetic in [4] fell in the range of 0.025 to 0.05 mg/mL (≈ 51 to 102 µM). For the same compound, the CLint in [6] came to 677 µL/min/mg; in series [10] (microsomes, 1 h) it was 535 µL/min/mg. For the same compound, in [7], the logD worked out at 4.1.

For `CN1CCN(c2ccc(S(=O)(=O)NCc3ccc(C(=O)Nc4cnccn4)cc3)cc2)CC1`, the midpoint of inhibition with Trypanosoma cruzi [1], the IC50, lay at 17 µM.

Consider `CN1CCN(c2ccc(S(=O)(=O)NCc3ccc(C(=O)Nc4ccc(C#N)nc4)cc3)cc2)CC1`, for which, in the series on Trypanosoma cruzi [1], the half-maximal inhibitory concentration (IC50) was 100 µM.

In the case of `CN1CCN(c2ccc(S(=O)(=O)NCc3ccc(C(=O)Nc4ccncc4)cc3)cc2)CC1`, in the series on Trypanosoma cruzi [1], the concentration for half-maximal inhibition (IC50) stood at 28 µM.

For `Cc1ncccc1NC(=O)c1ccc(CNS(=O)(=O)c2ccc(N3CCN(C)CC3)cc2)cc1`, in [15], the outcome was inactive. In addition, the IC50 was determined as 65 µM in the series with Trypanosoma cruzi [1] and 487 µM in series [8].

On to `Cc1ccc(NC(=O)c2ccc(CNS(=O)(=O)c3ccc(N4CCN(C)CC4)cc3)cc2)c(C)n1`, for which, in the series with Trypanosoma cruzi [1], inhibition was half-maximal at 110 µM (IC50).

In the series with Trypanosoma cruzi [1], `O=C(Nc1cccnc1)c1ccc(CNS(=O)(=O)c2ccc(N3CCC3)cc2)cc1` yielded an IC50 of 8.3 µM.
